The record followed here is patent publication US20250108064A1, “PHOSPHATE PRODRUGS OF CANNABINOIDS” (priority 2021, published 2025).

What all share (assay type): in vitro ADME
Data set [1] can be described thus: Liver microsome stability assay (MLM). The note with it: mouse, mouse liver microsomes, pH 7.4; 3 μM test compound, NADPH; read-out: T 1/2 in MLM. On the procedure:
General Experimental: Human and mouse liver microsomes were purchased from Xenotech at 20 mg/mL. NADPH (Sigma-Aldrich) 10 mM stocks were prepared in deionized water.
Procedure for Liver Microsome Stability Assay: Test compounds and positive controls were dissolved in 100% DMSO to make 10 mM stock solutions. Verapamil (Sigma-Aldrich) and diphenhydramine (Sigma-Aldrich) were used as positive controls for both human liver microsomes (HLM) and mouse liver microsomes (MLM). The 10 mM stock solutions of test and control compounds were further diluted in potassium phosphate buffer (100 mM, pH 7.4) to 500 μM to ensure that the organic solvent content was <0.2%. The liver microsome (HLM or MLM) assay was prepared in a 1.5 mL Eppendorf tube with a final volume of 1100 μL for duplicate runs. Each reaction contained phosphate buffer (928.4 μL), liver microsomes (55 μL), and test compound (6.6 μL of 500 μM), resulting in a final concentration of 3 μM for the test compound. The reaction was initiated with 110 μL of 10 mM NADPH. Aliquots (100 μL) were removed in duplicate at 0, 5, 10, 15, and 30 min and quenched in […] of 100% cold methanol which contained internal standard (ISTD: d5-7-ethoxy coumarin 2 μM). The aliquots were centrifuged at 12,000 g for 5 min, and the supernatant was transferred and placed in an LC-MS vial. Each time point was assessed by LC-MS/MS, and the area under the m/z curve (AUC), based on the MRM transition, was integrated w.r.t the ISTD. Positive controls were conducted at a final volume of 550 μL to enable a single run for each time point. Negative controls in the absence of NADPH were performed with the test and control compounds, respectively, at a final volume of 150 μL and measured at the most prolonged time point. Control compounds were processed and analyzed like test compounds. […] Half-life (T1/2) was calculated using the data obtained from LC-MS/MS and by plotting ln (% remaining of the parent prodrug) versus time and performing linear regression to determine slope. […]

A short description of data set [2]: Liver microsome stability assay (HLM). The note with it: human, microsomes, pH 7.4; 3 μM test compound, NADPH; read-out: T½ in HLM. The method in brief:
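Compound (3 μM) incubated with human or mouse liver microsomes in 100 mM phosphate pH 7.4, started with NADPH; minus-NADPH controls included. Samples taken at 0, 5, 10, 15 and 30 min, quenched in cold methanol and analysed by LC-MS/MS. T1/2 = 0.693/k from ln % remaining vs time.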

Data set [3] is described as follows: Plasma stability (mouse plasma). The settings on record: read-out: T½ in mouse plasma (converted).

Take `C=C(C)[C@@H]1CCC(C)=C[C@H]1c1c(O)cc(CCCCC)cc1OC(=O)C1(OP(=O)(O)O)CC1.N.N` [7b, 1-((((1′R,2′R)-6-hydroxy-5′-methyl-4-pentyl-2′-(prop-1-en-2-yl)-1′,2′,3′,4′-tetrahydro-[1,1′-biphenyl]-2-yl)oxy)carbonyl)cyclopropyl phosphate di-ammonium salt]: in data set [1], the half-life at 3 μM turned out to be 0.55 h. Moreover, the half-life in data set [2] was 2.62 h; in data set [3] it was 3.7 h.
